From ChEMBL document CHEMBL1201862, “PubChem BioAssay data set” (2004)
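In this assay, cells in 96-well plates receive the compound at five concentrations for 48 hours. Endpoints are linearly interpolated between the surrounding concentrations. GI50 = concentration required for 50% inhibition of growth.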 Active and inactive are the calls of the source. Rule as the data show it: active = GI50 up to about 1.1 µM and inactive = higher.

Legend:
Assay in all cases: growth of human tumour cells (NCI), 48 h
[1] = tested on: SF-268
[2] = tested on: NCI-H226
[3] = tested on: OVCAR-5
[4] = tested on: UO-31
[5] = tested on: NCI-H23
[6] = tested on: RXF 631
[7] = tested on: SNB-78
[8] = tested on: SK-OV-3
[9] = tested on: HOP-62
[10] = tested on: HOP-92
[11] = tested on: NCI-H460
[12] = tested on: UACC-257
[13] = tested on: A498
[14] = tested on: K562
[15] = tested on: SK-MEL-2
[16] = tested on: RXF 393
[17] = tested on: MOLT-4
[18] = tested on: HCC 2998
[19] = tested on: LOX IMVI
[20] = tested on: OVCAR-8
[21] = tested on: NCI-H522
[22] = tested on: DMS-114
[23] = tested on: IGROV-1
[24] = tested on: CAKI-1
[25] = tested on: KM12
[26] = tested on: RPMI-8226
[27] = tested on: SK-MEL-5
[28] = tested on: OVCAR-3
[29] = tested on: TK-10
[30] = tested on: HCT-116
[31] = tested on: SF-539
[32] = tested on: DMS-273
[33] = tested on: SK-MEL-28
[34] = tested on: COLO 205
[35] = tested on: ACHN
[36] = tested on: U-251
[37] = tested on: HT-29
[38] = tested on: XF498
[39] = tested on: SNB-19
[40] = tested on: SW-620
[41] = tested on: CCRF-CEM
[42] = tested on: A549
[43] = tested on: SR
[44] = tested on: EKVX
[45] = tested on: HCT-15
[46] = tested on: Malme-3M
[47] = tested on: KM-20L2
[48] = tested on: 786-0
[49] = tested on: LXFL 529
[50] = tested on: SNB-75
[51] = tested on: OVCAR-4
[52] = tested on: HL-60
[53] = tested on: M14
[54] = tested on: SN12C
[55] = tested on: DLD-1
[56] = tested on: MCF7
[57] = tested on: PC-3
[58] = tested on: SF-295
[59] = tested on: NCI/ADR-RES
[60] = tested on: MDA-MB-435
[61] = tested on: DU-145
[62] = tested on: UACC-62
[63] = tested on: HOP-18
[64] = tested on: M19-MEL
[65] = tested on: MDA-MB-231
[66] = tested on: Hs-578T
[67] = tested on: BT-549
[68] = tested on: MDA-N
[69] = tested on: T47D

CC(=O)Nc1[nH]n(C)c(=O)c1-c1nnc(C)s1
GI50 [1]: > 100 µM (inactive)
GI50 [2]: > 100 µM (inactive)
GI50 [3]: > 100 µM (inactive)
GI50 [4]: > 100 µM (inactive)
GI50 [5]: > 100 µM (inactive)
GI50 [6]: > 100 µM (inactive)
GI50 [7]: > 100 µM (inactive)
GI50 [8]: > 100 µM (inactive)
GI50 [9]: > 100 µM (inactive)
GI50 [10]: > 100 µM (inactive)
GI50 [11]: > 100 µM (inactive)
GI50 [12]: > 100 µM (inactive)
GI50 [13]: > 100 µM (inactive)
GI50 [14]: > 100 µM (inactive)
GI50 [15]: > 100 µM (inactive)
GI50 [16]: > 100 µM (inactive)
GI50 [17]: > 100 µM (inactive)
GI50 [18]: > 100 µM (inactive)
GI50 [19]: > 100 µM (inactive)
GI50 [20]: > 100 µM (inactive)
GI50 [21]: > 100 µM (inactive)
GI50 [22]: > 100 µM (inactive)
GI50 [23]: > 100 µM (inactive)
GI50 [24]: > 100 µM (inactive)
GI50 [25]: > 100 µM (inactive)
GI50 [26]: > 100 µM (inactive)
GI50 [27]: > 100 µM (inactive)
GI50 [28]: > 100 µM (inactive)
GI50 [29]: > 100 µM (inactive)
GI50 [30]: > 100 µM (inactive)
GI50 [31]: > 100 µM (inactive)
GI50 [32]: > 100 µM (inactive)
GI50 [33]: > 100 µM (inactive)
GI50 [34]: > 100 µM (inactive)
GI50 [35]: > 100 µM (inactive)
GI50 [36]: > 100 µM (inactive)
GI50 [37]: > 100 µM (inactive)
GI50 [38]: > 100 µM (inactive)
GI50 [39]: > 100 µM (inactive)
GI50 [40]: > 100 µM (inactive)
GI50 [41]: > 100 µM (inactive)
GI50 [42]: > 100 µM (inactive)
GI50 [43]: > 100 µM (inactive)
GI50 [44]: > 100 µM (inactive)
GI50 [45]: > 100 µM
GI50 [46]: > 100 µM (inactive)
GI50 [47]: > 100 µM (inactive)
GI50 [48]: > 100 µM (inactive)
GI50 [49]: > 100 µM (inactive)
GI50 [50]: > 100 µM (inactive)
GI50 [51]: > 100 µM (inactive)
GI50 [52]: > 100 µM (inactive)
GI50 [53]: > 100 µM (inactive)
GI50 [54]: > 100 µM (inactive)
GI50 [55]: > 100 µM (inactive)

NC(=O)c1c[se]c(C2OC(CO)C(O)C2O)n1 (stereo unspecified)
GI50 [1]: 6.84 µM (inactive)
GI50 [2]: > 58.6 µM (inactive)
GI50 [3]: 31 µM (inactive)
GI50 [56]: 8.67 µM (inactive)
GI50 [4]: 6.5 µM (inactive)
GI50 [5]: 11 µM (inactive)
GI50 [57]: 1.44 µM (inactive)
GI50 [6]: 7.6 µM (inactive)
GI50 [8]: > 29 µM (inactive)
GI50 [9]: 10.2 µM (inactive)
GI50 [10]: > 100 µM (inactive)
GI50 [11]: 17.5 µM (inactive)
GI50 [12]: > 100 µM (inactive)
GI50 [13]: 44 µM (inactive)
GI50 [58]: 2.39 µM (inactive)
GI50 [14]: 0.627 µM (active)
GI50 [15]: > 100 µM (inactive)
GI50 [59]: 9.16 µM (inactive)
GI50 [17]: 0.568 µM (active)
GI50 [18]: 32.4 µM (inactive)
GI50 [19]: 32.1 µM (inactive)
GI50 [20]: 4.31 µM (inactive)
GI50 [21]: 6.25 µM (inactive)
GI50 [22]: 25.4 µM (inactive)
GI50 [23]: 4.98 µM (inactive)
GI50 [24]: 6.93 µM (inactive)
GI50 [60]: 7.29 µM (inactive)
GI50 [25]: 0.57 µM (active)
GI50 [26]: 6.43 µM (inactive)
GI50 [27]: 10.3 µM (inactive)
GI50 [61]: 31.8 µM (inactive)
GI50 [28]: 0.74 µM (active)
GI50 [29]: > 91.4 µM (inactive)
GI50 [30]: 3.45 µM (inactive)
GI50 [31]: 2.43 µM (inactive)
GI50 [32]: 3.58 µM (inactive)
GI50 [33]: 2.61 µM (inactive)
GI50 [34]: 1.22 µM (inactive)
GI50 [35]: 5.94 µM (inactive)
GI50 [36]: 0.953 µM (active)
GI50 [37]: 3.55 µM (inactive)
GI50 [62]: 12.3 µM (inactive)
GI50 [38]: 8.91 µM (inactive)
GI50 [39]: 6.35 µM (inactive)
GI50 [40]: 1.47 µM (inactive)
GI50 [41]: 0.875 µM (active)
GI50 [42]: 8.67 µM (inactive)
GI50 [43]: 8.61 µM (inactive)
GI50 [63]: > 100 µM (inactive)
GI50 [64]: 5.28 µM (inactive)
GI50 [65]: 5.01 µM (inactive)
GI50 [66]: > 100 µM (inactive)
GI50 [44]: > 79.1 µM (inactive)
GI50 [45]: 0.537 µM
GI50 [46]: > 100 µM (inactive)
GI50 [67]: 8.09 µM (inactive)
GI50 [48]: 2.44 µM (inactive)
GI50 [68]: 36.4 µM (inactive)
GI50 [49]: 17 µM (inactive)
GI50 [50]: > 59 µM (inactive)
GI50 [51]: 3.99 µM (inactive)
GI50 [52]: 0.984 µM (active)
GI50 [69]: > 100 µM (inactive)
GI50 [53]: 1.63 µM (inactive)
GI50 [54]: > 84.7 µM (inactive)
GI50 [55]: 1.88 µM (inactive)
